# Patent US10323037B2, “Aminopyridazinone compounds as protein kinase inhibitors” (Jiangsu Hengrui Medicine Co., Ltd., priority 2014, dated 2019)
# Test system: TMD-8 cells
# Assay: Cell proliferation assay (CellTiter-Glo), TMD-8
# Assay type: cell-based
# Settings: 5-day treatment; read-out: TMD8 cells growth IC50
# Summary of the method: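 TMD-8 cells seeded at 5,000–10,000/well, cultured overnight, then exposed to compound (vehicle 0.5% DMSO) for 5 days at 37 °C. Growth read by CellTiter-Glo luminescence; IC50 from log concentration versus % growth inhibition relative to vehicle.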
row,Compound,IC50
1,"CN(C)C/C=C/C(=O)NC1CCC(n2cc(-c3ccc(Oc4ccccc4)cc3)c3c(N)n[nH]c(=O)c32)CC1 (centres unmarked) [Example 46, (E)-N-[4-[4-amino-7-oxo-3-(4-phenoxyphenyl)-6H-pyrrolo[2,3 d]pyridazin-1-yl]cyclohexyl]-4-(dimethylamino)but-2-enamide]",10 to 1000 nM

# Same assay, conditions: Homo sapiens, TMD8, 120 h; 5-day treatment; read-out: TMD8 cells growth IC50
row,Compound,IC50
1,"CN(C)C/C=C/C(=O)N1CCC[C@@H](n2c(F)c(-c3ccc(Oc4ccccc4)cc3)c3c(N)n[nH]c(=O)c32)C1 [Example 82, 4-amino-1-[(3R)-1-[(E)-4-(dimethylamino)but-2-enoyl]-3-piperidyl]-2-fluoro-3-(4-phenoxyphenyl)-6H-pyrrolo[2,3-d]pyridazin-7-one]",≤ 10 nM
2,"CN(C)C/C=C/C(=O)N1CCC[C@@H](n2cc(-c3ccc(Oc4ccccc4)cc3F)c3c(N)n[nH]c(=O)c32)C1 [Example 77, 4-amino-1-[(3R)-1-[(E)-4-(dimethylamino)but-2-enoyl]-3-piperidyl]-3-(2-fluoro-4-phenoxy-phenyl)-6H-pyrrolo[2,3-d]pyridazin-7-one]",≤ 10 nM
3,"N#CN1CCCC(n2cc(-c3ccc(Oc4ccccc4F)cc3)c3c(N)n[nH]c(=O)c32)C1 (centres unmarked) [Example 108, 3-(4-amino-3-(4-(2-fluorophenoxy)phenyl)-7-oxo-6,7-dihydro-1H-pyrrolo[2,3-d]pyridazin-1-yl)piperidine-1-carbonitrile]",≤ 10 nM
4,"C=CC(=O)N1CCCC(n2cc(-c3ccc(Oc4cccc(Cl)c4)cc3)c3c(N)n[nH]c(=O)c32)C1 (centres unmarked) [Example 66, 1-(1-acryloylpiperidin-3-yl)-4-amino-3-(4-(3-chlorophenoxy)phenyl)-1H-pyrrolo[2,3-d]pyridazin-7(6H)-one]",≤ 10 nM
5,"CC#CC(=O)N1CC[C@@H](n2cc(-c3ccc(Oc4ccccc4Cl)cc3)c3c(N)n[nH]c(=O)c32)C1 [Example 96, (R)-4-amino-1-(1-(but-2-ynoyl)pyrrolidin-3-yl)-3-(4-(2-chlorophenoxy)phenyl)-1H-pyrrolo[2,3-d]pyridazin-7(6H)-one]",10 to 1000 nM
6,"CN(C)C/C=C/C(=O)N1C[C@H](n2cc(-c3ccc(Oc4ccccc4)cc3)c3c(N)n[nH]c(=O)c32)CC(F)(F)C1 [Example 49, 4-amino-1-[(3R)-1-[(E)-4-(dimethylamino)but-2-enoyl]-5,5-difluoro-3-piperidyl]-3-(4-phenoxyphenyl)-6H-pyrrolo[2,3-d]pyridazin-7-one]",10 to 1000 nM
7,"CC#CC(=O)N[C@H]1CC[C@@H](n2cc(-c3ccc(Oc4ccccc4F)cc3)c3c(N)n[nH]c(=O)c32)CC1 [Example 102, N-((1s,4s)-4-(4-amino-3-(4-(2-fluorophenoxy)phenyl)-7-oxo-6,7-dihydro-1H-pyrrolo[2,3-d]pyridazin-1-yl)cyclohexyl)but-2-ynamide]",≤ 10 nM
8,"C=CC(=O)N1CCC[C@@H](n2cc(-c3ccc(Oc4ccccc4F)cc3)c3c(N)n[nH]c(=O)c32)C1 [Example 56, (R)-1-(1-acryloylpiperidin-3-yl)-4-amino-3-(4-(2-fluorophenoxy)phenyl)-1H-pyrrolo[2,3-d]pyridazin-7(6H)-one]",≤ 10 nM
9,"C=CC(=O)N1CCC(F)C(n2cc(-c3ccc(Oc4ccccc4)cc3)c3c(N)n[nH]c(=O)c32)C1 (centres unmarked) [Example 13, 1-(1-acryloyl-4-fluoropiperidin-3-yl)-4-amino-3-(4-phenoxyphenyl)-1H-pyrrolo[2,3-d]pyridazin-7(6H)-one]",≤ 10 nM
10,"C/C=C/C(=O)N1CCC[C@@H](n2cc(-c3ccc(Oc4c(F)cccc4F)cc3)c3c(N)n[nH]c(=O)c32)C1 [Example 116, 4-amino-3-[4-(2,6-difluorophenoxy)phenyl]-1-[(3R)-1-[(E)-but-2-enoyl]-3-piperidyl]-6H-pyrrolo[2,3-d]pyridazin-7-one]",10 to 1000 nM
11,"Nc1n[nH]c(=O)c2c1c(-c1ccc(Oc3ccccc3)cc1)cn2[C@@H]1CCCN(C(=O)C2CC2)C1 [Example 23, 4-amino-1-[(3R)-1-(cyclopropanecarbonyl)-3-piperidyl]-3-(4-phenoxyphenyl)-6H-pyrrolo[2,3-d]pyridazin-7-one]",10 to 1000 nM
12,"Nc1n[nH]c(=O)c2c1c(-c1ccc(Oc3ccccc3)cc1)cn2[C@@H]1CCCN(C(=O)/C=C/CN2CCCC2)C1 [Example 34, 4-amino-3-(4-phenoxyphenyl)-1-[(3R)-1-[(E)-4-pyrrolidin-1-ylbut-2-enoyl]-3-piperidyl]-6H-pyrrolo[2,3-d]pyridazin-7-one]",≤ 10 nM
13,"N#C/C(=C\C1CC1)C(=O)N1CCC[C@@H](n2cc(-c3ccc(Oc4ccccc4)cc3)c3c(N)n[nH]c(=O)c32)C1 [Example 50, (E)-2-[(3R)-3-[4-amino-7-oxo-3-(4-phenoxyphenyl)-6H-pyrrolo[2,3-d]pyridazin-1-yl]piperidine-1-carbonyl]-3-cyclopropyl-prop-2-enenitrile]",10 to 1000 nM
14,"C=CC(=O)N1CCCC(n2cc(-c3ccc(Oc4ccc(F)cc4)cc3)c3c(N)n[nH]c(=O)c32)C1 (centres unmarked) [Example 60, 1-(1-acryloylpiperidin-3-yl)-4-amino-3-(4-(4-fluorophenoxy)phenyl)-1H-pyrrolo[2,3-d]pyridazin-7(6H)-one]",10 to 1000 nM
15,"C=CC(=O)N1CCC[C@@H](n2cc(-c3ccc(Oc4ccc(Cl)c(Cl)c4)c(OC)c3)c3c(N)n[nH]c(=O)c32)C1 [Example 72, (R)-1-(1-acryloylpiperidin-3-yl)-4-amino-3-(4-(3,4-dichlorophenoxy)-3-methoxyphenyl)-1H-pyrrolo[2,3-d]pyridazin-7(6H)-one]",10 to 1000 nM
16,"C=CC(=O)N[C@H]1CC[C@H](n2cc(-c3ccc(Oc4ccccc4F)cc3)c3c(N)n[nH]c(=O)c32)CC1 [Example 105, N-((1r,4r)-4-(4-amino-3-(4-(2-fluorophenoxy)phenyl)-7-oxo-6,7-dihydro-1H-pyrrolo[2,3-d]pyridazin-1-yl)cyclohexyl)acrylamide]",10 to 1000 nM
17,"N#CN1CCC[C@@H](n2cc(-c3ccc(Oc4ccccc4)cc3)c3c(N)n[nH]c(=O)c32)C1 [Example 20, (R)-3-(4-amino-7-oxo-3-(4-phenoxyphenyl)-6,7-dihydro-1H-pyrrolo[2,3-d]pyridazin-1-yl)piperidine-1-carbonitrile]",≤ 10 nM
18,"C=CC(=O)N1CCC(Cn2cc(-c3ccc(Oc4ccccc4)cc3)c3c(N)n[nH]c(=O)c32)CC1 [Example 10, 4-amino-3-(4-phenoxyphenyl)-1-[(1-prop-2-enoyl-4-piperidyl)methyl]-6H-pyrrolo[2,3-d]pyridazin-7-one]",10 to 1000 nM
19,"C=CC(=O)N1CCC[C@@H](n2c(Cl)c(-c3ccc(Oc4ccccc4)cc3)c3c(N)n[nH]c(=O)c32)C1 [Example 80, (R)-1-(1-acryloylpiperidin-3-yl)-4-amino-2-chloro-3-(4-phenoxyphenyl)-1H-pyrrolo[2,3-d]pyridazin-7(6H)-one]",10 to 1000 nM
20,"CCN(CC)C/C=C/C(=O)N1CCC[C@@H](n2cc(-c3ccc(Oc4ccccc4)cc3)c3c(N)n[nH]c(=O)c32)C1 [Example 27, 4-amino-1-[(3R)-1-[(E)-4-(diethylamino)but-2-enoyl]-3-piperidyl]-3-(4-phenoxyphenyl)-6H-pyrrolo[2,3-d]pyridazin-7-one]",≤ 10 nM
21,"C=CC(=O)N1CCCC(n2cc(-c3ccc(Oc4cccc(F)c4)cc3)c3c(N)n[nH]c(=O)c32)C1 (centres unmarked) [Example 62, 1-(1-acryloylpiperidin-3-yl)-4-amino-3-(4-(3-fluorophenoxy)phenyl)-1H-pyrrolo[2,3-d]pyridazin-7(6H)-one]",≤ 10 nM
22,"C=CC(=O)N1CCC[C@H]1Cn1cc(-c2ccc(Oc3ccccc3)cc2)c2c(N)n[nH]c(=O)c21 [Example 6, 4-amino-3-(4-phenoxyphenyl)-1-[[(2S)-1-prop-2-enoylpyrrolidin-2-yl]methyl]-6H-pyrrolo[2,3-d]pyridazin-7-one]",≤ 10 nM
23,"N#CN1CCC[C@@H](n2cc(-c3ccc(Oc4c(F)cccc4F)cc3)c3c(N)n[nH]c(=O)c32)C1 [Example 84, (R)-3-(4-amino-3-(4-(2,6-difluorophenoxy)phenyl)-7-oxo-6,7-dihydro-1H-pyrrolo[2,3-d]pyridazin-1-yl)piperidine-1-carbonitrile]",≤ 10 nM
24,"N#CCC(=O)N1CCC[C@@H](n2cc(-c3ccc(Oc4ccccc4)cc3)c3c(N)n[nH]c(=O)c32)C1 [Example 24, 3-[(3R)-3-[4-amino-7-oxo-3-(4-phenoxyphenyl)-6H-pyrrolo[2,3-d]pyridazin-1-yl]-1-piperidyl]-3-oxo-propanenitrile]",10 to 1000 nM
25,"Nc1n[nH]c(=O)c2c1c(-c1ccc(Oc3ccccc3)cc1)cn2[C@@H]1CCCN(C(=O)/C=C/CN2CCOCC2)C1 [Example 35, 4-amino-1-[(3R)-1-[(E)-4-morpholinobut-2-enoyl]-3-piperidyl]-3-(4-phenoxyphenyl)-6H-pyrrolo[2,3-d]pyridazin-7-one]",≤ 10 nM
26,"CN(C)C/C=C/C(=O)N1CCC[C@@H](n2cc(-c3ccc(Oc4c(F)cccc4F)cc3)c3c(N)n[nH]c(=O)c32)C1 [Example 59, 4-amino-3-[4-(2,6-difluorophenoxy)phenyl]-1-[(3R)-1-[(E)-4-(dimethylamino)but-2-enoyl]-3-piperidyl]-6H-pyrrolo[2,3-d]pyridazin-7-one]",≤ 10 nM
27,"CN(C)C/C=C/C(=O)N1CCC[C@@H](n2cc(-c3ccc(Oc4ccccc4)c(F)c3)c3c(N)n[nH]c(=O)c32)C1 [Example 75, 4-amino-1-[(3R)-1-[(E)-4-(dimethylamino)but-2-enoyl]-3-piperidyl]-3-(3-fluoro-4-phenoxy-phenyl)-6H-pyrrolo[2,3-d]pyridazin-7-one]",10 to 1000 nM
28,"CCC(=O)N1CCC[C@@H](n2cc(-c3ccc(Oc4c(F)cccc4F)cc3)c3c(N)n[nH]c(=O)c32)C1 [Example 115, (R)-4-amino-3-(4-(2,6-difluorophenoxy)phenyl)-1-(1-propionylpiperidin-3-yl)-1H-pyrrolo[2,3-d]pyridazin-7(6H)-one]",10 to 1000 nM
